This passage reports IC50 results from BindingDB's records for patent US20260028352 (Suzhou Langrui Biopharmaceutical, 2026).

Structures are written as SMILES.

The target in assay [1] is High affinity nerve growth factor receptor (Homo sapiens, UniProt P04629). The experiment in a line: Inhibitory Activity of Compounds Against TRKA and TRKA(F589L) Kinases. How it is done: (§1) Kinase Assay Process: 1× Kinase buffer was prepared. […] 10 μL of the 2.5× final concentration kinase solution was added to the compound wells and the positive control wells, and 10 μL of 1× Kinase buffer was added to the negative control wells. The plate was centrifuged at 1000 rpm for 30 seconds, vortexed for mixing, and then incubated at room temperature for 10 minutes. A mixture of 5/3× final concentration of ATP and Kinase Substrate 22 was prepared using 1× Kinase buffer. 15 μL of the mixture of the 5/3× final concentration ATP and the substrate was added to initiate the reaction, the 384-well plate was centrifuged at 1000 rpm for 30 seconds, vortexed for mixing, and incubated at room temperature for the required time. 30 μL of the termination solution was added to stop the kinase reaction, the plate was centrifuged at 1000 rpm for 30 seconds, and vortexed for mixing. The conversion rate was measured using the Caliper EZ Reader.

The target of assay [2] is High affinity nerve growth factor receptor NTRK1 [F589L] (UniProt P04629, F589L). Described as above. The procedure:
as §1

For orientation: IC50 means the concentration that gives 50% inhibition. Low values mean greater potency in that assay, high ones weaker potency in that assay.

Sequence of High affinity nerve growth factor receptor NTRK1 [F589L] (P04629 33-796 F589L limits assumed): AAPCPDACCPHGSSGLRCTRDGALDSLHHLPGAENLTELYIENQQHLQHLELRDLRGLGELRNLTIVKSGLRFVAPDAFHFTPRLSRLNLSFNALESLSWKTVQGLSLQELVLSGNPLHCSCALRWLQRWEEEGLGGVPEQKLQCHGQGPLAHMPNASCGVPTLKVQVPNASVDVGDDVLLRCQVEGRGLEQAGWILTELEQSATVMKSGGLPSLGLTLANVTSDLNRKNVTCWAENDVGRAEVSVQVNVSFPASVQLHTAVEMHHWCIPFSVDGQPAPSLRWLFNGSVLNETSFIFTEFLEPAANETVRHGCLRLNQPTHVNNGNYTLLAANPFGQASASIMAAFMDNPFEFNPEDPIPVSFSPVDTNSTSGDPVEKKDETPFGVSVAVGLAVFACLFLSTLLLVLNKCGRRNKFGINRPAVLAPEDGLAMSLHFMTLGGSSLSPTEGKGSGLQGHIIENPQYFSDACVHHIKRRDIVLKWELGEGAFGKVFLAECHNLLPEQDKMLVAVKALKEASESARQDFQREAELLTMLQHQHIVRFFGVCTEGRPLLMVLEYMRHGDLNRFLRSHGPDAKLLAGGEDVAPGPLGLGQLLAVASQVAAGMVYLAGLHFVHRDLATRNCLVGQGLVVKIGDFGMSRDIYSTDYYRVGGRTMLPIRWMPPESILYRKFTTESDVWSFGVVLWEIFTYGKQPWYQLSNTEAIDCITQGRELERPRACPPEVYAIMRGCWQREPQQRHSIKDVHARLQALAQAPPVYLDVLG
Sequence of High affinity nerve growth factor receptor (P04629 whole entry): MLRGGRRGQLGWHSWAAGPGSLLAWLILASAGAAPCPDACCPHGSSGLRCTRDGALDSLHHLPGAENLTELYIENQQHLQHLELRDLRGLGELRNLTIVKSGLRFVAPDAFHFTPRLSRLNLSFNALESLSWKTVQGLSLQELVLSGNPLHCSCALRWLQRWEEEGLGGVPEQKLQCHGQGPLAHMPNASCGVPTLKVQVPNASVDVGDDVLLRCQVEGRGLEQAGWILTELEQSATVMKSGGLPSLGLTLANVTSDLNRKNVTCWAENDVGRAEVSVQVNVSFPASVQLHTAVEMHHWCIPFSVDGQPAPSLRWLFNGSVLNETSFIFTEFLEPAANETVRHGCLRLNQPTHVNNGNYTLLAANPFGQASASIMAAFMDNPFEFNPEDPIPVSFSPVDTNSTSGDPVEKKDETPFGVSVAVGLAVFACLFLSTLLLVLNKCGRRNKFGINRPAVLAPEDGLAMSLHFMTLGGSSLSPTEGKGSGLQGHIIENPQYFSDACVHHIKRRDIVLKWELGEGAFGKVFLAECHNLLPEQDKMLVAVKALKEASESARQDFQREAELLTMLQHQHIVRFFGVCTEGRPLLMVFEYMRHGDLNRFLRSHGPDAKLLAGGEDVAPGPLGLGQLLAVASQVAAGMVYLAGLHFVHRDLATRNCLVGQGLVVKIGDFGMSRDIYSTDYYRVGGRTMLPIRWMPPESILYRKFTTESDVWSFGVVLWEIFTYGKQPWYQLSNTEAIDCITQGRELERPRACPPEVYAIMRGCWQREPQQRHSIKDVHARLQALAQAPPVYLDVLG

Regarding `C[C@@H]1Cc2ccnc(c2)-c2cnc3ccc(nn23)N2C[C@@H](F)C[C@@H]2c2cc(F)cnc2O1` [US20260028352, Example I-40], in assay [1], the IC50 is less than 3 nM.

The compound `Fc1ccc2c(c1)[C@H]1C[C@H](F)CN1c1ccc3ncc(n3n1)-c1cc(ccn1)CO2` [US20260028352, Example I-50] had an IC50 in assay [1] of less than 3 nM. Still for that read-out and setting: the figure for `Fc1ccc2c(c1)[C@H]1C[C@H](F)CN1c1ccc3ncc(n3n1)-c1cc(ccn1)CCO2` [US20260028352, Example I-56] is less than 3 nM; for `Fc1ccc2c(c1)[C@H]1CCCN1c1ccc3ncc(n3n1)-c1cc(ncn1)CO2` [US20260028352, Example I-69] it is less than 3 nM.

Turning to `C[C@@H]1Cc2ccnc(c2)-c2cnc3ccc(nn23)N2C[C@@H](F)C[C@@H]2c2cc(F)ccc2O1` [US20260028352, Example I-39], the IC50 is less than 5 nM in assay [2] and less than 3 nM in assay [1]. `C[C@H]1Nc2ccc3ncc(n3n2)-c2cc(ncn2)COc2ccc(F)cc21` [US20260028352, Example I-78]: the figures for the IC50 in assay [2] and in assay [1] were less than 5 nM and less than 3 nM, respectively. The corresponding values for `C[C@H]1Nc2ccc3ncc(n3n2)-c2cc(ccn2)CCOc2ccc(F)cc21` [US20260028352, Example I-76] are less than 5 nM and less than 3 nM. `Fc1cnc2c(c1)[C@H]1CCCN1c1ccc3ncc(n3n1)-c1cc(ncn1)CCO2` [US20260028352, Example I-71] registered an IC50 in assay [1] of less than 3 nM. Consider `CC1(C)Nc2ccc3ncc(n3n2)-c2cc(ccn2)COc2ccc(F)cc21` [US20260028352, Example I-48], for which the IC50 in assay [1] was less than 3 nM. Still for that read-out and setting: the figure for `Fc1ccc2c(c1)[C@H]1CCCN1c1ccc3ncc(n3n1)-c1cc(ccn1)CCO2` [US20260028352, Example I-53] is less than 3 nM. Same read-out and setting: the figure for `Fc1cnc2c(c1)[C@H]1CCCN1c1ccc3ncc(n3n1)-c1cc(ncn1)CO2` [US20260028352, Example I-59] is less than 3 nM; for `Fc1ccc2c(c1)[C@H]1C[C@H](F)CN1c1ccc3ncc(n3n1)-c1cc(cnn1)CCO2` [US20260028352, Example I-86] it is less than 3 nM. As for `Fc1ccc2c(c1)[C@H]1CCCN1c1ccc3ncc(n3n1)-c1nccc(n1)CCO2` [US20260028352, Example I-92], the IC50 in assay [1] was less than 3 nM. Turning to `Fc1ccc2c(c1)C1(CC1)Nc1ccc3ncc(n3n1)-c1cc(ccn1)CO2` [US20260028352, Example I-47], the values for the IC50 in assay [2] and in assay [1] were less than 5 nM and less than 3 nM, respectively. As for `Fc1ccc2c(c1)[C@H]1C[C@H](F)CN1c1ccc3ncc(n3n1)-c1nccc(n1)CCO2` [US20260028352, Example I-93], the IC50 in assay [1] was less than 3 nM. On the same count and under the same terms, the figure for `C[C@@H]1Cc2ccnc(c2)-c2cnc3ccc(nn23)N2CCC[C@@H]2c2cc(F)cnc2O1` [US20260028352, Example I-38] is less than 3 nM. As for `C[C@H]1Nc2ccc3ncc(n3n2)-c2cc(ncn2)CCOc2ccccc21` [US20260028352, Example I-32], the half-inhibitory concentration (IC50) in assay [2] is less than 5 nM; in assay [1], less than 3 nM.

With `C[C@H]1Nc2ccc3ncc(n3n2)-c2cc(ccn2)N2CC[C@@H](C2)Oc2ccc(F)cc21` [US20260028352, Example I-42], the IC50 in assay [1] was less than 3 nM.

Compound `Fc1cnc2c(c1)[C@H]1C[C@H](F)CN1c1ccc3ncc(n3n1)-c1cc(ncn1)CCO2` [US20260028352, Example I-72] gave an IC50 in assay [1] of less than 3 nM.

Regarding `Fc1ccc2c(c1)[C@H]1CCCN1c1ccc3ncc(n3n1)-c1nccc(n1)CO2` [US20260028352, Example I-61], the IC50 in assay [2] is less than 5 nM; in assay [1] it was less than 3 nM.

The compound `C[C@H]1Nc2ccc3ncc(n3n2)-c2nccc(n2)CCOc2ncc(F)cc21` [US20260028352, Example I-83] yielded an IC50 in assay [1] of less than 3 nM. Turning to `C[C@H]1Nc2ccc3ncc(n3n2)-c2cc(ncn2)CCOc2ncc(F)cc21` [US20260028352, Example I-73], the values for the IC50 in assay [2] and in assay [1] were less than 5 nM and less than 3 nM, respectively.

On to `C[C@H]1Nc2ccc3ncc(n3n2)-c2nccc(n2)COc2ccc(F)cc21` [US20260028352, Example I-80], for which the IC50 in assay [1] was less than 3 nM. With `C[C@@H]1Cc2cc(ncn2)-c2cnc3ccc(nn23)N[C@H](C)c2cc(F)ccc2O1` [US20260028352, Example I-35], the IC50 in assay [2] is less than 5 nM; in assay [1] it was less than 3 nM.

`Fc1cnc2c(c1)[C@H]1C[C@H](F)CN1c1ccc3ncc(n3n1)-c1cc(ccn1)CO2` [US20260028352, Example I-60] had an IC50 in assay [1] of less than 3 nM. In turn, `Fc1cnc2c(c1)[C@H]1CCCN1c1ccc3ncc(n3n1)-c1cc(ccn1)CCO2` [US20260028352, Example I-55] came in with an IC50 in assay [1] of less than 3 nM. Same read-out and setting: the figure for `C[C@H]1Nc2ccc3ncc(n3n2)-c2cc(ncn2)COc2ncc(F)cc21` [US20260028352, Example I-77] is less than 3 nM; for `Fc1cnc2c(c1)[C@H]1C[C@H](F)CN1c1ccc3ncc(n3n1)-c1cc(ccn1)CCO2` [US20260028352, Example I-54] it is less than 3 nM. Consider `C[C@H]1Nc2ccc3ncc(n3n2)-c2nccc(n2)COc2ncc(F)cc21` [US20260028352, Example I-81], for which the IC50 in assay [2] is less than 5 nM; in assay [1], less than 3 nM. The corresponding values for `Fc1ccc2c(c1)[C@H]1CCCN1c1ccc3ncc(n3n1)-c1cc(ccn1)[C@H]1CCC[C@H]1O2` [US20260028352, Example I-45] are less than 5 nM and less than 3 nM. The corresponding values for `C[C@H]1Nc2ccc3ncc(n3n2)-c2cc(cnn2)COc2ncc(F)cc21` [US20260028352, Example I-79] are less than 5 nM and less than 3 nM. In assay [1], `C[C@H]1Nc2ccc3ncc(n3n2)-c2cc(ccn2)CCOc2ncc(F)cc21` [US20260028352, Example I-75] yielded an IC50 of less than 3 nM. As for `Fc1cnc2c(c1)[C@H]1C[C@H](F)CN1c1ccc3ncc(n3n1)-c1cc(ncn1)CO2` [US20260028352, Example I-52], the IC50 was less than 5 nM in assay [2] and less than 3 nM in assay [1]. In the case of `C[C@H]1Nc2ccc3ncc(n3n2)-c2cc(ccn2)N2CCC[C@@H](C2)Oc2ccc(F)cc21` [US20260028352, Example I-44], the IC50 in assay [2] was less than 5 nM; in assay [1] it was less than 3 nM. The corresponding values for `C[C@@H]1Cc2ccnc(c2)-c2cnc3ccc(nn23)N[C@H](C)c2cc(F)cnc2O1` [US20260028352, Example I-36] are less than 5 nM and less than 3 nM. The corresponding values for `Fc1ccc2c(c1)[C@H]1CCCN1c1ccc3ncc(n3n1)-c1cc(ccn1)[C@@H]1CCC[C@H]1O2` [US20260028352, Example I-46] are less than 5 nM and less than 3 nM. The corresponding values for `Fc1ccc2c(c1)[C@H]1CCCN1c1ccc3ncc(n3n1)-c1cc(cnn1)CO2` [US20260028352, Example I-65] are less than 5 nM and less than 3 nM.

As for `C[C@H]1Cc2ccnc(n2)-c2cnc3ccc(nn23)N2C[C@@H](F)C[C@@H]2c2cc(F)cnc2O1` [US20260028352, Example I-96], the IC50 in assay [2] is less than 5 nM; in assay [1], less than 3 nM. The corresponding values for `C[C@H]1Nc2ccc3ncc(n3n2)-c2cc(cnn2)COc2ccc(F)cc21` [US20260028352, Example I-82] are less than 5 nM and less than 3 nM. In assay [1], `C[C@@H]1Cc2ccnc(c2)-c2cnc3ccc(nn23)N[C@H](C)c2cc(F)ccc2O1` [US20260028352, Example I-34] showed an IC50 of less than 3 nM. Same read-out and setting: the figure for `Fc1cnc2c(c1)[C@H]1CCCN1c1ccc3ncc(n3n1)-c1cc(ccn1)CO2` [US20260028352, Example I-51] is less than 3 nM. In turn, `Fc1cnc2c(c1)[C@H]1C[C@H](F)CN1c1ccc3ncc(n3n1)-c1cc(cnn1)CCO2` [US20260028352, Example I-88] displayed an IC50 in assay [1] of less than 3 nM.

As to `C[C@@H]1Cc2ccnc(c2)-c2cnc3ccc(nn23)N2CCC[C@@H]2c2cc(F)ccc2O1` [US20260028352, Example I-37], the figures for the IC50 in assay [2] and in assay [1] were less than 5 nM and less than 3 nM, respectively.

Turning to `C[C@H]1Nc2ccc3ncc(n3n2)-c2cc(ccn2)N2CC[C@H](C2)Oc2ccc(F)cc21` [US20260028352, Example I-41], in assay [1], the IC50 was less than 3 nM. Still for that read-out and setting: the figure for `Fc1cnc2c(c1)[C@H]1C[C@H](F)CN1c1ccc3ncc(n3n1)-c1nccc(n1)CO2` [US20260028352, Example I-64] is less than 3 nM; for `Fc1cnc2c(c1)[C@H]1CCCN1c1ccc3ncc(n3n1)-c1nccc(n1)CCO2` [US20260028352, Example I-94] it is less than 3 nM.

Compound `Fc1ccc2c(c1)[C@H]1C[C@H](F)CN1c1ccc3ncc(n3n1)-c1cc(ncn1)CCO2` [US20260028352, Example I-70] gave an IC50 in assay [1] of less than 3 nM. On the same count and under the same terms, the figure for `Fc1ccc2c(c1)[C@H]1C[C@H](F)CN1c1ccc3ncc(n3n1)-c1cc(cnn1)CO2` [US20260028352, Example I-68] is less than 3 nM; for `Fc1ccc2c(c1)[C@H]1C[C@H](F)CN1c1ccc3ncc(n3n1)-c1cc(ncn1)CO2` [US20260028352, Example I-58] it is less than 3 nM. In turn, `C[C@H]1Nc2ccc3ncc(n3n2)-c2nccc(n2)CCOc2ccc(F)cc21` [US20260028352, Example I-84] returned an IC50 in assay [1] of less than 3 nM. Still for that read-out and setting: the figure for `Fc1cnc2c(c1)[C@H]1CCCN1c1ccc3ncc(n3n1)-c1nccc(n1)CO2` [US20260028352, Example I-63] is less than 3 nM; for `C[C@H]1Nc2ccc3ncc(n3n2)-c2cc(ccn2)N2CCC[C@H](C2)Oc2ccc(F)cc21` [US20260028352, Example I-43] it is less than 3 nM.

Compound `Fc1cnc2c(c1)[C@H]1CCCN1c1ccc3ncc(n3n1)-c1cc(cnn1)CO2` [US20260028352, Example I-67] came in with an IC50 in assay [1] of less than 3 nM.
